# Where “and” joins values, the source holds several entries; their conditions need not be identical. Equal values may be shown once. Read-outs that look alike come from different tables or passages of the source.
# Assays:
# [1] = system: Ishikawa uterine cells; assay: Ishikawa cell alkaline phosphatase test procedure; format: cell-based, human; details: for Alkaline phosphatase activity, percent of response related to 1 nM 17β-estradiol: 48 h; for EC50: reference standards, read-out: ED50, estrogenic activity by the alkaline phosphatase method
# Experimental: Ishikawa Cell Alkaline Phosphatase Test Procedure
# Cell Maintenance and Treatment
# Ishikawa cells were maintained in DMEM/F12 (50%:50%) containing phenol red+10% fetal bovine serum and the medium was supplemented with 2 mM Glutamax, 1% Pen/Strap and 1 mM sodium pyruvate. Five days prior to the beginning of each evaluation (treatment of cells) the medium was changed to phenol red-free DMEM/F12+10% dextran coated charcoal stripped serum. On the day before treatment, cells were harvested using 0.5% trypsin/EDTA and plated at a density of 5×10^4 cells/well in 96-well tissue culture plates. […] Cells were treated for 48 h prior to assay. […] Sample population for at each dose was n=8.
# Alkaline Phosphatase Test Procedure
# At the end of 48 h the media was aspirated and cells were washed three times with phosphate buffered saline (PBS); 50 μL of lysis buffer (0.1 M Tris-HCl, pH 9.8, 0.2% Triton X-100) was added to each well. Plates were placed at −80° C. for a minimum of 15 minutes. Plates were thawed at 37° C. followed by the addition of 150 μL of 0.1 M Tris-HCl, pH 9.8, containing 4 mM para-nitrophenylphosphate (pNPP) to each well (final concentration, 3 mM pNPP).
# Absorbance and slope calculations were made using the KineticCalc Application program (Bio-Tek Instruments, Inc., Winooski, Vt.). Results are expressed as the mean +/−S.D. of the rate of enzyme reaction (slope) averaged over the linear portion of the kinetic reaction curve (optical density readings every 5 minutes for 30 minutes absorbance reading).
# The four compounds were used as reference standards:
# A description of these methods is described by Holinka, C. F., Hata, H., Kuramoto, H. and Gurpide, E. (1986) Effects of steroid hormones and antisteroids on alkaline phosphatase activity in human endometrial cancer cells (Ishikawa Line). Cancer Research, 46:2771-2774, and by Littlefield, B. A., Gurpide, E., Markiewicz, L., McKinley, B. and Hochberg, R. B. (1990) A simple and sensitive microtiter plate estrogen bioassay based on stimulation alkaline phosphatase in Ishikawa cells; Estrogen action of D5 adrenal steroids. Endocrinology, 6:2757-2762.
# [2] = molecular target: T1, human estrogen receptor (Homo sapiens, UniProt P03372); assay: In vitro estrogen receptor binding test procedure ([3H]-17β-estradiol competition); details: for Receptor IC50: displacement of [3H]17β-estradiol, CHO cell cytosol ER preparation; for Competition for the human estrogen receptor: in words, compounds with 17β-acetate
# T1 construct: expressed in transfected cells; host or cells: Chinese Hamster ovary (CHO) cells; ribosome-free cytosol
# T1 sequence (P03372 1-595): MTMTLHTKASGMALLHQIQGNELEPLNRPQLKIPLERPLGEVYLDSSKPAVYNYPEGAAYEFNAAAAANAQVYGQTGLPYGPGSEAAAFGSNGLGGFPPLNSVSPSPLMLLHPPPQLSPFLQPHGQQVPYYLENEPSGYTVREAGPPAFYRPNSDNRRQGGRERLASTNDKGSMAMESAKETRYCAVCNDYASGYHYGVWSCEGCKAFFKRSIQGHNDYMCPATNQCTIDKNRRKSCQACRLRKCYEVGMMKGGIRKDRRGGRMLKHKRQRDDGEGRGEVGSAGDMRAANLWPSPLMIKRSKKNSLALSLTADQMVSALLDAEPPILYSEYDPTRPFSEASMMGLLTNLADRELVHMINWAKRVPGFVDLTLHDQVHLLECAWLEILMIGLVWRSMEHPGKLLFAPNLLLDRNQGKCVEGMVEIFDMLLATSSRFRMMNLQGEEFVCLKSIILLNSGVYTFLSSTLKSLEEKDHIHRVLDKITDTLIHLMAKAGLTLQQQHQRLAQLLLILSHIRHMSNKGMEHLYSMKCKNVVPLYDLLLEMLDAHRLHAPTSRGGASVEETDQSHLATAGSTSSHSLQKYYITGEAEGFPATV
# Experimental: In vitro Estrogen Receptor Binding Test Procedure
# Chinese Hamster ovary (CHO) cells overexpressing the estrogen receptor were grown in […] dishes in DMEM+10% dextran coated charcoal, stripped fetal bovine serum. The plates were washed twice with PBS and once with 10 mM Tris-HCl, pH 7.4, 1 mM EDTA. Cells were harvested by scraping the surface and then the cell suspension was placed on ice. Cells were disrupted with a hand-held motorized tissue grinder using two, 10-second bursts. The crude preparation was centrifuged at 12,000 g for 20 minutes followed by a 60 minute spin at 100,000 G to produce a ribosome free cytosol. The cytosol was then frozen and stored at −80° C. Protein concentration of the cytosol was estimated using the BCA assay with reference standard protein.
# Binding Test Procedure Conditions
# 100 uG/100 uL of the receptor preparation was aliquoted per well. […] The plate was incubated at room temperature for 2.5 h. At the end of this incubation period 150 uL of ice-cold dextran coated charcoal (5% activated charcoal coated with 0.05% 69K dextran) was added to each well and the plate was immediately centrifuged at 99 g for 5 minutes at 4° C. 200 uL of the supernatant solution was then removed for scintillation counting. Samples were counted to 2% or 10 minutes, whichever occurs first. […] Also, wells containing radioactivity but no cytosol were processed with charcoal to estimate unremovable DPM of [^3H] […] 96-well plates were used because they have proven to bind the least amount of estradiol.
# Counts per minute (CPM) of radioactivity were automatically converted to disintegrated per minute (DPM) by the Beckman LS 7500 Scintillation Counter using a set of quenched standards to generate a H# for each sample. To calculate the % of estradiol binding in the presence of 100 or 500 fold competitor the following formula was applied:
# ((DPM sample−DPM not removed by charcoal/(DPM estradiol−DPM not removed by charcoal))×100%=% of estradiol binding
# For the generation of IC50 curves, % binding is plotted vs compound. […] Values are reported as IC50 values. […] For a description of these methods, see Hulme, E. C., ed. 1992. Receptor-Ligand Interactions: A Practical Approach. IRL Press, New York.(see especially chapter 8).
# Compounds were tested for their ability to displace estradiol in a human ER-receptor preparation as described above.
# [3] = system: rat uterus; assay: Rat uterotrophic/antiuterotrophic test procedure; format: in vivo; details: 1 ug 17β-estradiol, daily ip, 4-day immature rat
# Experimental: Rat Uterotrophic/Antiuterotrophic Test Procedure
# The estrogenic and antiestrogenic properties of the compounds were determined in a 4-day immature rat uterotrophic assay (as described previously by L. J. Black and R. L. Goode, Life Sciences, 26, 1453 (1980)). Immature Sprague-Dawley rats (female, 18 days old) were tested in groups of six. […] On day 4 the animals were sacrificed by CO2 asphyxiation and their uteri were removed and stripped of excess lipid, any fluid removed and the wet weight determined. A small section of one horn was submitted for histology and the remainder used to isolate total RNA in order to evaluate complement component 3 gene expression.
# Representative compounds of this invention were evaluated in the rat uterotrophic/antiuterotrophic assay to determine their in vivo effects on the rat uterus.
# [4] = 1 uM compound + 1 nM E2, antagonist mode
Structure (SMILES),"Alkaline phosphatase activity, percent of response related to 1 nM 17β-estradiol ([1]; 0.01 uM compound, agonist mode) [%]","Alkaline phosphatase activity, percent of response related to 1 nM 17β-estradiol ([1]; 0.1 uM compound, agonist mode) [%]","Alkaline phosphatase activity, percent of response related to 1 nM 17β-estradiol [1, 4] [%]","Alkaline phosphatase activity, percent of response related to 1 nM 17β-estradiol ([1]; 1 uM compound, agonist mode) [%]",other results
"CC(=O)O[C@H]1CC[C@H]2[C@@H]3[C@H](Sc4ccc(O)cc4)C(=O)c4cc(O)ccc4[C@H]3CC[C@]12C [Example 1, (7α,17β) 17-Acetoxy-3-hydroxy-7-(4-hydroxyphenyl)thio-estra-1,3,5(10)-triene-6-one]",7,9,76,29,
"COC(=O)C=Cc1ccc(S[C@@H]2Cc3cc(O)ccc3[C@H]3CC[C@]4(C)[C@@H](OC(C)=O)CC[C@H]4[C@@H]32)cc1 [Example 9, (7α,17β) 7-{4-[2-(Methoxycarbonyl)-ethenyl]phenyl}thio-estra-1,3,5(10)-triene-3,17-diol-17-acetate]",1,33,59,61,Receptor IC50 [2]: No Binding; Competition for the human estrogen receptor [2]: competed less effectively
"CC(=O)O[C@H]1CC[C@H]2[C@@H]3[C@H](Sc4ccc(Br)cc4)C(=O)c4cc(O)ccc4[C@H]3CC[C@]12C [Example 5, (7α,17β) 17-Acetoxy-7-(4-bromophenyl)thio-3-hydroxy-estra-1,3,5(10)-trien-6-one]",58,108,106,104,"Behaviour in the uterine cell line (agonist/antagonist) ([1]; in words, from Table 2): fully efficacious agonists"
"C[C@]12CC[C@@H]3c4ccc(O)cc4CC[C@H]3[C@@H]1CCC2=O [estrone, reference compound]",,,,,"EC50 ([1]; Homo sapiens, Ishikawa): 0.36 nM"
"COc1ccc2c(c1)CC(Sc1ccc(OCCN3CCCCC3)cc1)C1C2CCC2(C)C(OC(C)=O)CCC12 (stereo not drawn) [Example 14, (7α,17β) 3-Methoxy-7-{4-[2-(piperdin-1-yl)]ethoxyphenyl}thio-estra-1,3,5(10)-triene-17-ol-17-acetate]",2,3,105,39,Receptor IC50 [2]: No Binding; Competition for the human estrogen receptor [2]: competed less effectively
"C[C@]12CC[C@@H]3c4ccc(O)cc4CC[C@H]3[C@@H]1CC[C@H]2O [17α-estradiol, reference compound]",,,,,EC50 [1]: 1.42 nM
"COc1ccc2c(c1)CC(Sc1ccc(OCCN3CCCCC3)cc1)C1C2CCC2(C)C(O)CCC12 (stereo not drawn) [Example 15, (7α,17β) 3-Methoxy-7-{4-[2-(piperdin-1-yl)]ethoxyphenyl}thio-estra-1,3,5(10)-triene-17-ol]",0,0,69,22,
"C[C@]12CC[C@@H]3c4ccc(O)cc4C[C@@H](Sc4ccc(C=CC(=O)O)cc4)[C@H]3[C@@H]1CC[C@@H]2O [Example 11, (7α,17β) 7-{4-[2-(Carboxy)-ethenyl]phenyl}thio-estra-1,3,5(10)-triene-3,17-diol]",0,23,50,21,IC50 [2]: 1500 nM
"C[C@]12CC[C@@H]3c4ccc(O)cc4[C@@H](O)[C@@H](Sc4ccc(Br)cc4)[C@H]3[C@@H]1CC[C@@H]2O [Example 7, (6α,7α,17β) 7-(4-Bromophenyl)thio-estra-1,3,5(10)-triene-3,6,17-triol]",46,58,98,66,IC50 [2]: 800 nM
"C[C@]12CC[C@@H]3c4ccc(O)cc4CC[C@H]3[C@@H]1C[C@@H](O)[C@@H]2O [estriol, reference compound]",,,,,"EC50 ([1]; Homo sapiens, Ishikawa): 0.13 nM"
"C[C@]12CC[C@@H]3c4ccc(O)cc4CC[C@H]3[C@@H]1CC[C@@H]2O [17β-estradiol, reference compound]",,,,,"EC50 ([1]; Homo sapiens, Ishikawa): 0.03 nM; Uterine wet weight [3]: 87.6 mg and 82.1 mg and 92.6 mg and 83.8 mg and 94.6 mg"
"CN(C)C(=O)/C=C/c1ccc(S[C@@H]2Cc3cc(O)ccc3[C@H]3CC[C@]4(C)[C@@H](O)CC[C@H]4[C@@H]32)cc1 [Example 10, (7α,17β) 7-{4-[(E)-2-(N,N-Dimethylcarbamoyl)-ethenyl]phenyl}thio-estra-1,3,5(10)-triene-3,17-diol]",0,12,57,28,
